Laboratory results as given in patent US20090099029A1, “Methods and substrates for conducting assays” (Invitrogen Corporation, priority 2005, published 2009).
Like-named read-outs stand apart in the source and are kept apart here.

Tests used:
Experiment in all cases: Further analysis of a plurality of inhibitors and a plurality of kinases (Table 5 inhibition results)
Type in all cases: biochemical
Design in all cases: scale not given here
kinases of Table 5 [1] = biological target: T1, kinases of Table 5 (Homo sapiens, UniProt P54762); details: for Inhibition Results (Level): kinase EPHB1 (Part II, plate B8, Domain 1)
T1 sequence (P54762 18-984): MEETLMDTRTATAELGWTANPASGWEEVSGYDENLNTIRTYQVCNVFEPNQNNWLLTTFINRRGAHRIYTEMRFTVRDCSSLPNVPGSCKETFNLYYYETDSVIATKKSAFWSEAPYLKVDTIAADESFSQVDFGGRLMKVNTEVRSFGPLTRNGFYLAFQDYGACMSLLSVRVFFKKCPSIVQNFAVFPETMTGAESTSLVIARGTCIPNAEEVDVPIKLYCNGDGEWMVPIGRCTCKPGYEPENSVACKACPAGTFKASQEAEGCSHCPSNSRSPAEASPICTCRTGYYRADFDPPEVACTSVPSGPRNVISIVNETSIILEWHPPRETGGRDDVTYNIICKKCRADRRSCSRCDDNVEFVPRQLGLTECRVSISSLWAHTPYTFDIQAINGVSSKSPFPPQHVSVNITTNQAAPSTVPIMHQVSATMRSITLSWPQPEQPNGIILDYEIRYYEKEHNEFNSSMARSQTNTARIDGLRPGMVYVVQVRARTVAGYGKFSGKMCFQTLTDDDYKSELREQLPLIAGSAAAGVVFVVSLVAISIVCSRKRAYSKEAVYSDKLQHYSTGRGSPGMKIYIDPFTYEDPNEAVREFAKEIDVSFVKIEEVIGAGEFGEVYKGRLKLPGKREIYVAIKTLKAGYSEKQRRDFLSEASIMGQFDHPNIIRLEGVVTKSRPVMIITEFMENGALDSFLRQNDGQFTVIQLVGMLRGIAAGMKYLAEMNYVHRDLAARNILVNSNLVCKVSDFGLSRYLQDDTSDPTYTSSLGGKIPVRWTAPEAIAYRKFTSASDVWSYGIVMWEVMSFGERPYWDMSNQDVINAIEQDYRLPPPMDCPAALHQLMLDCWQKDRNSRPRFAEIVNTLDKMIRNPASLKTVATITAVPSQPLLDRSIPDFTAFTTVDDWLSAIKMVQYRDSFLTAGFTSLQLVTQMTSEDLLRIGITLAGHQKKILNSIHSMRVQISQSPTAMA
Description: (§1) The wash solution is then discarded.

kinases of Table 5 [2] = biological target: T2, kinases of Table 5 (Homo sapiens, UniProt P29323); details: kinase EPHB2 (Part I, plate E5, Domain 1)
T2 sequence (P29323 19-1055): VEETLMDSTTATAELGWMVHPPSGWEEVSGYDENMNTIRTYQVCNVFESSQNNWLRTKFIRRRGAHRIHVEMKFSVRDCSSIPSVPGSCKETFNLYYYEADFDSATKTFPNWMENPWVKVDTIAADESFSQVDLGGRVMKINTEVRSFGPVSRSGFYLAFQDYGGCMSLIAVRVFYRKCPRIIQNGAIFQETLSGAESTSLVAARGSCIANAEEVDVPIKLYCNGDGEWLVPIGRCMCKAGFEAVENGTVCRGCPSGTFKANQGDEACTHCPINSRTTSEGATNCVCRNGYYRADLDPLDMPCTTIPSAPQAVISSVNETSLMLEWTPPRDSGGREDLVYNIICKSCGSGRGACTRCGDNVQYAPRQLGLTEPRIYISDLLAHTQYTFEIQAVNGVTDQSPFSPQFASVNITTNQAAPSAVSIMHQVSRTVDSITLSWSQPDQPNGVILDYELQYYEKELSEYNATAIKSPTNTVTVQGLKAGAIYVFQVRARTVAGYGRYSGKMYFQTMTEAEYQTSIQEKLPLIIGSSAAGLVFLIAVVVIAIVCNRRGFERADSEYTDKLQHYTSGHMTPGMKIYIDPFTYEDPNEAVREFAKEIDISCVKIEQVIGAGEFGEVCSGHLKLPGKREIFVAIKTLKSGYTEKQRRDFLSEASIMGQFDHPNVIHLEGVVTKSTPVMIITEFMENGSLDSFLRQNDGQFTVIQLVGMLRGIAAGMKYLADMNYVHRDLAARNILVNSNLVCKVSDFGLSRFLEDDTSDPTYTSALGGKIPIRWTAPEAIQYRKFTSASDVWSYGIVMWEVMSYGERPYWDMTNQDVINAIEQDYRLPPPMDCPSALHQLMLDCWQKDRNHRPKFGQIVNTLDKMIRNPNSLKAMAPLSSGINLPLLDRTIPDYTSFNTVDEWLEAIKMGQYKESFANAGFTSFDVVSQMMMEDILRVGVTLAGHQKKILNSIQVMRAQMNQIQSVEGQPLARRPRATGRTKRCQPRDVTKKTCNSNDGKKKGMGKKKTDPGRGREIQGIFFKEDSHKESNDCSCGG
Description: as §1

kinases of Table 5 [3] = biological target: T3, kinases of Table 5 (Homo sapiens, UniProt P51813); details: inhibitor 100 uM; for Inhibition level: kinase BMX; for Inhibition Results (Level): kinase BMX (Part II, plate B12, Domain 1)
T3 sequence (P51813 1-675): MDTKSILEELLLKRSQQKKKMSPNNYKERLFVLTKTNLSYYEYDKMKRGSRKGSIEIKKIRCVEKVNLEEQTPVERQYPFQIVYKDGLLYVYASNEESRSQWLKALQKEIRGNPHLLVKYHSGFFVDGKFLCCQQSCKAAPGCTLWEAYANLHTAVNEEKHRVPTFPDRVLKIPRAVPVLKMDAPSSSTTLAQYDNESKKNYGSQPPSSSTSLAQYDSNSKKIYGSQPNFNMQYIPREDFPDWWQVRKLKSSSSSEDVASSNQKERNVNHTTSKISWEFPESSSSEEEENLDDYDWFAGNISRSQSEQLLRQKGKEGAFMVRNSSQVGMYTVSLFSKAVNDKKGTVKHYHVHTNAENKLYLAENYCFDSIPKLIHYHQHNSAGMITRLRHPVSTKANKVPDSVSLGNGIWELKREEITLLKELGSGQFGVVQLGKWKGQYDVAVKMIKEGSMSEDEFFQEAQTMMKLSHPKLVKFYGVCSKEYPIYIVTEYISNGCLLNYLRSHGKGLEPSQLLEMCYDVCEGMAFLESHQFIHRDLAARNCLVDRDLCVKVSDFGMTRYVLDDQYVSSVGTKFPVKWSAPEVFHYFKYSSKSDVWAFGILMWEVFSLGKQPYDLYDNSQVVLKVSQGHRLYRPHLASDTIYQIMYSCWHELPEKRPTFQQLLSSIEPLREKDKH
Description: as §1

[4] = kinase EPHB1, concentration not given

Inhibition level (kinases of Table 5 [1]; kinase EPHB1, inhibitor 100 uM) | Inhibition Results (Level) (kinases of Table 5 [2]; inhibitor 100 uM) | Inhibition level (kinases of Table 5 [3]) | Inhibition level (kinases of Table 5 [1]; [4]) | Inhibition Results (Level) (kinases of Table 5 [2]; inhibitor <3.7 mM) | Inhibition Results (Level) (kinases of Table 5 [2]; inhibitor 90 uM) | SMILES | Inhibition Results (Level) (kinases of Table 5 [1]; inhibitor 100 uM) | Inhibition Results (Level) (kinases of Table 5 [3]) | Inhibition level (kinases of Table 5 [1])
2 | 2 | 1 | – | – | – | COc1cc2ncnc(Nc3cccc(Cl)c3)c2cc1OC [AG 1478] | – | – | –
1 | 2 | 0 | 0 | 0 | – | O=c1c(-c2ccc(O)cc2)coc2cc(O)cc(O)c12 [Genistein] | – | – | –
– | 2 | – | – | – | – | O=S(=O)(NCCNC/C=C/c1ccc(Br)cc1)c1cccc2cnccc12 [H-89] | 1 | 1 | –
2 | 2 | 2 | – | – | – | CC(C)(C)n1nc(-c2ccc(Cl)cc2)c2c(N)ncnc21 [PP2] | – | – | –
0 | 2 | 2 | 2 | – | 0 | Cn1cc(C2=C(c3cn(CCCSC(=N)N)c4ccccc34)C(=O)NC2=O)c2ccccc21 [Ro-31-8220] | – | – | –

Continued, molecule first:

SMILES | Inhibition level (kinases of Table 5 [1]; kinase EPHB1, inhibitor 100 uM) | Inhibition Results (Level) (kinases of Table 5 [2]; inhibitor 100 uM) | Inhibition level (kinases of Table 5 [3]) | Inhibition level (kinases of Table 5 [1]; [4]) | Inhibition Results (Level) (kinases of Table 5 [2]; inhibitor <3.7 mM) | Inhibition Results (Level) (kinases of Table 5 [2]; inhibitor 90 uM) | Inhibition Results (Level) (kinases of Table 5 [1]; inhibitor 100 uM) | Inhibition Results (Level) (kinases of Table 5 [3]) | Inhibition level (kinases of Table 5 [1])
N#C/C(=C/c1ccc(O)c(O)c1)C(=O)NCc1ccccc1 [AG 490] | 0 | 2 | 0 | – | – | – | – | – | –
O=c1c(O)c(-c2ccc(O)c(O)c2)oc2cc(O)cc(O)c12 [Quercetin] | – | 2 | – | – | – | – | 0 | 0 | –
CC(=O)c1c(O)c(C)c(O)c(Cc2c(O)c3c(c(C(=O)/C=C/c4ccccc4)c2O)OC(C)(C)C=C3)c1O [Rottlerin (Mallotoxin)] | – | 2 | – | – | – | – | 1 | 1 | –
CN[C@@H]1C[C@H]2O[C@@](C)([C@@H]1OC)n1c3ccccc3c3c4c(c5c6ccccc6n2c5c31)C(=O)NC4 [Staurosporine] | – | – | – | – | – | – | – | – | 2
